Data as given in US9695155B2, “Herbicidal substituted pyrimidinyloxy benzene compounds” (E. I. DU PONT DE NEMOURS AND COMPANY, priority 2013, dated 2017).

Legend:
kochia [1] = assay: Test A preemergence; format: in vivo, Kochia scoparia
Outline: (§1)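 Visual 0–100 rating (100 = complete control) taken about 10 d post-treatment relative to untreated checks. Preemergence: directed soil spray on sown loam/sand pots. Postemergence: seedlings 2–10 cm, 1–2 leaf. Non-phytotoxic solvent formulation with surfactant.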

blackgrass = assay: Test C preemergence; format: in vivo, Alopecurus myosuroides; settings: for Blackgrass plant response rating: preemergence; for Plant response rating, Blackgrass: Preemergence, 31 g ai/ha, scale 0 to 100, 0 no effect, 100 complete control
Outline: (§2)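 Preemergence: seeds sown in a loam soil–sand blend and sprayed with test chemical in a non-phytotoxic solvent mixture containing surfactant. Postemergence: plants at 2 to 18 cm (1- to 4-leaf stage) in peat-based medium, treated with the same formulation. Greenhouse 13 to 15 days, then visual rating 0 (no effect) to 100 (complete control).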

kochia [2] = assay: Test A postemergence; format: in vivo, Kochia scoparia; settings: 0 to 100 scale where 0 is no effect and 100 is complete control
Outline: as §1

galium [3] = assay: Test A postemergence; format: in vivo, Galium aparine; settings: 0 to 100 scale where 0 is no effect and 100 is complete control
Outline: as §1

pigweed = assay: Test C preemergence; format: in vivo, Amaranthus retroflexus; settings: for Pigweed plant response rating: preemergence; for Plant response rating, Pigweed: Preemergence, 31 g ai/ha, scale 0 to 100, 0 no effect, 100 complete control
Outline: as §2

galium [4] = assay: Test C preemergence; format: in vivo, Galium aparine; settings: for Galium plant response rating: preemergence; for Plant response rating, Galium: Preemergence, 31 g ai/ha, scale 0 to 100, 0 no effect, 100 complete control
Outline: as §2

yellow nutsedge = assay: Test C preemergence; format: in vivo, Cyperus esculentus; settings: for Nutsedge, Yellow plant response rating: preemergence; for Plant response rating, Nutsedge, Yellow: Preemergence, 31 g ai/ha, scale 0 to 100, 0 no effect, 100 complete control
Outline: as §2

waterhemp = assay: Test C preemergence; format: in vivo, Amaranthus rudis; settings: for Waterhemp plant response rating: preemergence; for Plant response rating, Waterhemp: Preemergence, 31 g ai/ha, scale 0 to 100, 0 no effect, 100 complete control
Outline: as §2

lambsquarters = assay: Test C preemergence; format: in vivo, Chenopodium album; settings: for Lambsquarters plant response rating: preemergence; for Plant response rating, Lambsquarters: Preemergence, 31 g ai/ha, scale 0 to 100, 0 no effect, 100 complete control
Outline: as §2

wheat, winter = assay: Test C preemergence; format: in vivo, Triticum aestivum; settings: for Wheat plant response rating: preemergence; for Plant response rating, Wheat: Preemergence, 31 g ai/ha, scale 0 to 100, 0 no effect, 100 complete control
Outline: as §2

velvetleaf = assay: Test C preemergence; format: in vivo, Abutilon theophrasti; settings: for Velvetleaf plant response rating: preemergence; for Plant response rating, Velvetleaf: Preemergence, 31 g ai/ha, scale 0 to 100, 0 no effect, 100 complete control
Outline: as §2

barnyardgrass = assay: Test C preemergence; format: in vivo, Echinochloa crus-galli; settings: for Barnyardgrass plant response rating: preemergence; for Plant response rating, Barnyardgrass: Preemergence, 31 g ai/ha, scale 0 to 100, 0 no effect, 100 complete control
Outline: as §2

ragweed = assay: Test C preemergence; format: in vivo, Ambrosia elatior; settings: for Ragweed plant response rating: preemergence; for Plant response rating, Ragweed: Preemergence, 31 g ai/ha, scale 0 to 100, 0 no effect, 100 complete control
Outline: as §2

johnsongrass = assay: Test C preemergence; format: in vivo, Sorghum halepense; settings: for Johnsongrass plant response rating: preemergence; for Plant response rating, Johnsongrass: Preemergence, 31 g ai/ha, scale 0 to 100, 0 no effect, 100 complete control
Outline: as §2

giant foxtail = assay: Test C preemergence; format: in vivo, Setaria faberii; settings: for Foxtail, Giant plant response rating: preemergence; for Plant response rating, Foxtail, Giant: Preemergence, 31 g ai/ha, scale 0 to 100, 0 no effect, 100 complete control
Outline: as §2

oilseed rape = assay: Test C preemergence; format: in vivo, Brassica napus; settings: for Oilseed Rape plant response rating: preemergence; for Plant response rating, Oilseed Rape: Preemergence, 31 g ai/ha, scale 0 to 100, 0 no effect, 100 complete control
Outline: as §2

Italian ryegrass = assay: Test A preemergence; format: in vivo, Lolium multiflorum
Outline: as §1

soybean = assay: Test C preemergence; format: in vivo, Glycine max; settings: for Soybean plant response rating: preemergence; for Plant response rating, Soybean: Preemergence, 31 g ai/ha, scale 0 to 100, 0 no effect, 100 complete control
Outline: as §2

[5] = 125 g ai/ha, 0 to 100 scale where 0 is no effect and 100 is complete control
[6] = 500 g ai/ha, 0 to 100 scale, 0 no effect, 100 complete control, approx. 10 days
[7] = 16 g ai/ha, scale 0 to 100 (0 no effect, 100 complete control)
[8] = 62 g ai/ha, scale 0 (no effect) to 100 (complete control)
[9] = 125 g ai/ha, scale 0 (no effect) to 100 (complete control)

Cc1cnc(Oc2cccc(C#N)c2-n2cc(C#N)cn2)nc1 [Compound 90]
10: Ragweed plant response rating (ragweed; [7]) | Plant response rating, Johnsongrass (johnsongrass)
35: Nutsedge, Yellow plant response rating (yellow nutsedge; [7]) | Velvetleaf plant response rating (velvetleaf; [7]) | Plant response rating, Soybean (soybean)
30: Blackgrass plant response rating (blackgrass; [8]) | Ryegrass, Italian plant response rating (Italian ryegrass; [6])
45: Plant response rating, Foxtail, Giant (giant foxtail)
65: Plant response rating, Velvetleaf (velvetleaf) | Soybean plant response rating (soybean; [8])
20: Johnsongrass plant response rating (johnsongrass; [8])
5: Blackgrass plant response rating (blackgrass; [7]) | Plant response rating, Blackgrass (blackgrass) | Galium plant response rating (galium [4]; [7]) | Plant response rating, Galium (galium [4]) | Nutsedge, Yellow plant response rating (yellow nutsedge; [8]) | Plant response rating, Barnyardgrass (barnyardgrass) | Johnsongrass plant response rating (johnsongrass; [7]) | Foxtail, Giant plant response rating (giant foxtail; [7])
90: Plant response rating, Kochia (kochia [2]; 125 g ai/ha) | Plant response rating, Galium (galium [3]; 125 g ai/ha)
95: Ragweed plant response rating (ragweed; [9]) | Soybean plant response rating (soybean; [9])
40: Pigweed plant response rating (pigweed; [7])
80: Johnsongrass plant response rating (johnsongrass; [9]) | Plant response rating, Oilseed Rape (oilseed rape)
60: Nutsedge, Yellow plant response rating (yellow nutsedge; [9]) | Plant response rating, Ragweed (ragweed) | Oilseed Rape plant response rating (oilseed rape; [7])
25: Soybean plant response rating (soybean; [7])
85: Blackgrass plant response rating (blackgrass; [9]) | Plant response rating, Pigweed (pigweed) | Waterhemp plant response rating (waterhemp; [7]) | Barnyardgrass plant response rating (barnyardgrass; [9])
100: Plant response rating, Kochia (kochia [1]; [5]) | Kochia plant response rating (kochia [1]; [6]) | Plant response rating, Kochia (kochia [2]; 500 g ai/ha) | Plant response rating, Galium (galium [3]; 500 g ai/ha) | Pigweed plant response rating (pigweed; [9]) | Galium plant response rating (galium [4]; [8]) | Waterhemp plant response rating (waterhemp; [8]) | Waterhemp plant response rating (waterhemp; [9]) | Plant response rating, Waterhemp (waterhemp) | Lambsquarters plant response rating (lambsquarters; [7]) | Lambsquarters plant response rating (lambsquarters; [8]) | Lambsquarters plant response rating (lambsquarters; [9]) | Velvetleaf plant response rating (velvetleaf; [9]) | Ragweed plant response rating (ragweed; [8]) | Foxtail, Giant plant response rating (giant foxtail; [9]) | Oilseed Rape plant response rating (oilseed rape; [9])
98: Pigweed plant response rating (pigweed; [8]) | Galium plant response rating (galium [4]; [9]) | Plant response rating, Lambsquarters (lambsquarters) | Velvetleaf plant response rating (velvetleaf; [8]) | Oilseed Rape plant response rating (oilseed rape; [8])
75: Barnyardgrass plant response rating (barnyardgrass; [8]) | Foxtail, Giant plant response rating (giant foxtail; [8])
0: Plant response rating, Nutsedge, Yellow (yellow nutsedge) | Wheat plant response rating (wheat, winter; [7]) | Wheat plant response rating (wheat, winter; [8]) | Wheat plant response rating (wheat, winter; [9]) | Plant response rating, Wheat (wheat, winter) | Barnyardgrass plant response rating (barnyardgrass; [7]) | Plant response rating, Ryegrass, Italian (Italian ryegrass; [5])

N#Cc1cccc(Oc2ncc(Cl)cn2)c1-n1cc(OC(F)F)cn1 [Compound 97]
35: Barnyardgrass plant response rating (barnyardgrass; [7]) | Ragweed plant response rating (ragweed; [7]) | Plant response rating, Ragweed (ragweed)
90: Blackgrass plant response rating (blackgrass; [8]) | Blackgrass plant response rating (blackgrass; [9]) | Plant response rating, Galium (galium [4]) | Nutsedge, Yellow plant response rating (yellow nutsedge; [9]) | Wheat plant response rating (wheat, winter; [9]) | Johnsongrass plant response rating (johnsongrass; [8]) | Johnsongrass plant response rating (johnsongrass; [9]) | Oilseed Rape plant response rating (oilseed rape; [9]) | Plant response rating, Soybean (soybean)
0: Blackgrass plant response rating (blackgrass; [7]) | Wheat plant response rating (wheat, winter; [7])
40: Velvetleaf plant response rating (velvetleaf; [7]) | Plant response rating, Johnsongrass (johnsongrass)
95: Galium plant response rating (galium [4]; [9]) | Lambsquarters plant response rating (lambsquarters; [7]) | Plant response rating, Velvetleaf (velvetleaf) | Plant response rating, Barnyardgrass (barnyardgrass) | Soybean plant response rating (soybean; [8])
70: Plant response rating, Blackgrass (blackgrass)
98: Galium plant response rating (galium [4]; [8]) | Lambsquarters plant response rating (lambsquarters; [9]) | Plant response rating, Lambsquarters (lambsquarters) | Oilseed Rape plant response rating (oilseed rape; [8]) | Soybean plant response rating (soybean; [9])
60: Nutsedge, Yellow plant response rating (yellow nutsedge; [8]) | Wheat plant response rating (wheat, winter; [8]) | Foxtail, Giant plant response rating (giant foxtail; [7])
85: Galium plant response rating (galium [4]; [7]) | Ragweed plant response rating (ragweed; [8]) | Oilseed Rape plant response rating (oilseed rape; [7]) | Plant response rating, Oilseed Rape (oilseed rape)
10: Nutsedge, Yellow plant response rating (yellow nutsedge; [7]) | Plant response rating, Wheat (wheat, winter) | Johnsongrass plant response rating (johnsongrass; [7])
50: Soybean plant response rating (soybean; [7])
20: Plant response rating, Nutsedge, Yellow (yellow nutsedge)
100: Pigweed plant response rating (pigweed; [7]) | Pigweed plant response rating (pigweed; [8]) | Pigweed plant response rating (pigweed; [9]) | Plant response rating, Pigweed (pigweed) | Waterhemp plant response rating (waterhemp; [7]) | Waterhemp plant response rating (waterhemp; [8]) | Waterhemp plant response rating (waterhemp; [9]) | Plant response rating, Waterhemp (waterhemp) | Lambsquarters plant response rating (lambsquarters; [8]) | Velvetleaf plant response rating (velvetleaf; [8]) | Velvetleaf plant response rating (velvetleaf; [9]) | Barnyardgrass plant response rating (barnyardgrass; [8]) | Barnyardgrass plant response rating (barnyardgrass; [9]) | Ragweed plant response rating (ragweed; [9]) | Foxtail, Giant plant response rating (giant foxtail; [8]) | Foxtail, Giant plant response rating (giant foxtail; [9]) | Plant response rating, Foxtail, Giant (giant foxtail)

FC(F)c1cccc(Oc2ncc(Cl)cn2)c1-n1cc(C(F)(F)F)cn1 [Compound 170]
0: Blackgrass plant response rating (blackgrass; [7]) | Nutsedge, Yellow plant response rating (yellow nutsedge; [7]) | Wheat plant response rating (wheat, winter; [7]) | Johnsongrass plant response rating (johnsongrass; [7])
5: Soybean plant response rating (soybean; [7])
95: Galium plant response rating (galium [4]; [7]) | Oilseed Rape plant response rating (oilseed rape; [9])
80: Plant response rating, Blackgrass (blackgrass) | Velvetleaf plant response rating (velvetleaf; [8]) | Foxtail, Giant plant response rating (giant foxtail; [7])
45: Soybean plant response rating (soybean; [8])
55: Nutsedge, Yellow plant response rating (yellow nutsedge; [9]) | Plant response rating, Barnyardgrass (barnyardgrass) | Ragweed plant response rating (ragweed; [8]) | Soybean plant response rating (soybean; [9])
65: Ragweed plant response rating (ragweed; [9])
85: Ragweed plant response rating (ragweed; [7]) | Johnsongrass plant response rating (johnsongrass; [9]) | Plant response rating, Foxtail, Giant (giant foxtail)
20: Wheat plant response rating (wheat, winter; [8])
70: Johnsongrass plant response rating (johnsongrass; [8]) | Oilseed Rape plant response rating (oilseed rape; [7])
98: Plant response rating, Galium (galium [4]) | Foxtail, Giant plant response rating (giant foxtail; [8]) | Oilseed Rape plant response rating (oilseed rape; [8])
25: Velvetleaf plant response rating (velvetleaf; [7])
60: Wheat plant response rating (wheat, winter; [9])
90: Blackgrass plant response rating (blackgrass; [8]) | Blackgrass plant response rating (blackgrass; [9]) | Lambsquarters plant response rating (lambsquarters; [7])
15: Nutsedge, Yellow plant response rating (yellow nutsedge; [8])
100: Pigweed plant response rating (pigweed; [7]) | Pigweed plant response rating (pigweed; [8]) | Pigweed plant response rating (pigweed; [9]) | Galium plant response rating (galium [4]; [8]) | Galium plant response rating (galium [4]; [9]) | Waterhemp plant response rating (waterhemp; [7]) | Waterhemp plant response rating (waterhemp; [8]) | Waterhemp plant response rating (waterhemp; [9]) | Lambsquarters plant response rating (lambsquarters; [8]) | Lambsquarters plant response rating (lambsquarters; [9]) | Velvetleaf plant response rating (velvetleaf; [9]) | Barnyardgrass plant response rating (barnyardgrass; [8]) | Barnyardgrass plant response rating (barnyardgrass; [9]) | Foxtail, Giant plant response rating (giant foxtail; [9])
10: Barnyardgrass plant response rating (barnyardgrass; [7])
